{
  "source": "patent US8084575B2",
  "about": "“Millisecond activation switch for seven-transmembrane proteins” (Julius-Maximilians-Universitat, priority 2002, dated 2011)",
  "key": {"PTHR-cam": {"target": "T1, PTHR-cam (Homo sapiens, UniProt Q03431, INS395[…])", "T1 construct": "expressed in transfected cells", "experiment": "FRET (ratio F*535/F*480) in single HEK293 cells expressing PTHR-cam", "type": "cell-based", "details": "intact HEK293 cells; PTH 1 μM, PTH(7-34) 3 μM"}, "α2AAR-cam [1]": {"target": "T2, α2AAR-cam (Mus musculus, UniProt Q01338)", "T2 construct": "expressed in transfected cells; GIRK1 and GIRK4 co-transfected in A8)", "experiment": "FRET in neuronal PC-12 cells stably expressing α2AAR-cam, agonist versus inverse agonists", "type": "cell-based", "details": "100 μM", "description": "As documented in the appended examples, an illustrative recombinant α2A-adrenergic receptor (α2AAR-cam) was employed, whereby said α2A-adrenergic receptor (α2AAR-cam) comprises the two detectable labels YFP and CFP on the first intracellular loop and the third intracellular loop.\nThe α2AAR-cam receptors were stably expressed in the neuronal cell line PC-12. […] The signals were recorded before and after exposure to agonist (NA: noradrenaline, 100 μM) and two different inverse agonists (Yoh: yohimbine and Rau:rauwolscine, 100 μM)."}, "A2A-CFP14/10-YFPC33": {"test_system": "A2A-CFP14/10-YFPC33", "experiment": "Intramolecular FRET (nFRET) in HEK293 cells transfected with A2A-CFP14/10-YFPC33", "type": "cell-based, human", "description": "12 h post transfection cells were replated on glass coverslips coated with poly-L-lysine and cultured for another 12-36 h.\nCells were continuously superfused with control solution (in mM: 140 NaCl; 5.4 KCl; 2 CaCl2; 1 mM MgCl2; 10 mM Glucose and 10 HEPES/NaOH pH 7.3) using a fast solenoid valve operated superfusion system ALA-VM8 (ALA Scientific Instruments)."}, "α2AAR-cam [2]": {"target": "T2, α2AAR-cam", "type": "cell-based"}, "α2AAR-cam [3]": {"target": "T2, α2AAR-cam", "experiment": "[3H]UK14304 binding to membranes containing α2AAR-cam with exogenous Go protein", "details": "for Kd: read-out: Kd of agonist binding", "protocol": "Pharmacology. […] Saturation and competition binding studies were analysed with the program Prism to calculate KD- and Ki-values.\nThird, binding of G-proteins to receptors is known to enhance formation of the active, agonist-bound state."}, "α2AAR-cam [4]": {"target": "T2, α2AAR-cam", "experiment": "FRET in membranes containing α2AAR-cam in the presence of Go proteins", "type": "biochemical", "protocol": "Membrane preparation. Membrane fractions were obtained after two centrifugations at 4° C., first at 800×g for 10 min and the second at 100,000×g for 30 min. Membranes were treated with 6 M urea in 20 mM Hepes, pH 7.4, for 30 min on ice followed by centrifugation at 100,000×g for 15 min. After two washing steps at 4° C. in buffer B the membranes were resuspended in a buffer A (without BSA) and immediately used in the experiments. 20 μl aliquots of membranes were subjected to fluorescence microscopy similar to intact cells using a 20× objective."}, "α2AAR-cam [5]": {"target": "T2, α2AAR-cam", "experiment": "α2A-adrenergic receptor-activated whole cell GIRK currents in HEK293 cells", "type": "cell-based", "protocol": "(§1) Pharmacology. Ligand binding, receptor number determination, cAMP assays, measurement of α2A-adrenergic receptor-activated GIRK currents and reconstitution of receptor-Go coupling were measured as previously described (Vilardaga, (2001) loc. cit.; Bünemann, J. Bio. Chem. 276 (2001), 47512-47517; Vilardaga, J. Biol. Chem. 277 (2002), 8121-8129; Richardson, J. Biol. Chem. 274 (1999), 13525-13533). Saturation and competition binding studies were analysed with the program Prism to calculate KD- and Ki-values.\nElectrophysiology. Whole cell GIRK currents were measured in HEK293 cells stably expressing 6 pmol/mg membrane protein α2AR-cam 20-28 h after transient transfection with GIRK1 and GIRK4 as described previously (Bünemann, (2001), loc. cit.). Membrane currents were recorded using an EPC 9 amplifier and Pulse software (HEKA Instruments) for voltage control, data acquisition and data evaluation. Experimental conditions such as patch pipettes, internal and external solutions, voltage-clamp protocol as well as the superfusion system were the same as described previously (Bünemann, (2001), loc. cit.)."}, "A2A receptors": {"test_system": "A2A receptors", "experiment": "3H-NECA radioligand binding, adenosine receptor constructs in transiently transfected COS cells", "parameters": "species or system human", "protocol": "FIG. 12: Pharmacological properties of the Adenosine receptor constructs. A-B) Comparison between the binding (A) and signalling properties (B) of several adenosine receptor constructs with their respective wild-type receptor in transiently transfected COS cells. Adenylylcyclases activity was determined in membranes from transiently transfected COS cells as previously published (Jakobs et al., J cyclic Nucleotide Res 2 (1976) 381-392, Klotz et al., Naunyn-Schmiedeberg's Arch Pharmacol 357 (1998) 1-9). […] Data are the mean±sd of at least 3 separate experiments."}, "α2AAR": {"target": "T3, α2AAR (Mus musculus, UniProt Q01338)", "T3 construct": "expressed in transfected cells", "T3 sequence (Q01338 with tags, fused parts or gaps)": "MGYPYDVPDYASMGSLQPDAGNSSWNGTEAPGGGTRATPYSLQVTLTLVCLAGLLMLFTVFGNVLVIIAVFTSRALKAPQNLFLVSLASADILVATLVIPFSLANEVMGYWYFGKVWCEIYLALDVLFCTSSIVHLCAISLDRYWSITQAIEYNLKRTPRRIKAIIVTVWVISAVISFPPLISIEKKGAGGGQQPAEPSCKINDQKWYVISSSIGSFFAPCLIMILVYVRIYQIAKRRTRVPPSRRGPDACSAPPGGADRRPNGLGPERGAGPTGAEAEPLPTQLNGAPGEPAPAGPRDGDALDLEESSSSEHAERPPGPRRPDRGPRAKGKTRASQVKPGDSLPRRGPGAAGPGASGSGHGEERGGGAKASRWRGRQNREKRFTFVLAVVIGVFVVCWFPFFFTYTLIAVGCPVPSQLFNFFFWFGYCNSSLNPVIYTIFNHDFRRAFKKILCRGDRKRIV", "experiment": "Competition ligand binding, wild-type α2AAR stably expressed in HEK293 cells", "details": "read-out: noradrenaline affinity Ki", "protocol": "as §1"}, "α2AAR-cam [6]": {"target": "T2, α2AAR-cam", "experiment": "Competition ligand binding, α2AAR-cam stably expressed in HEK293 cells", "details": "read-out: noradrenaline affinity Ki", "protocol": "as §1"}, "[7]": {"test_system": "PTHR-CFP3-loop and PTHR-YFPC-term", "details": "absence or presence of PTH 1 μM"}},
  "note": "“Also recorded” adds a separate entry of the source. Like-named read-outs stand apart in the source and are kept apart here.",
  "data": [
    {"molecule": "PTH7-34: truncated variant of PTH, a low affinity antagonist (LMHNLGKHLNSMERVEWLRKKLQDVHNF; Parathyroid hormone; UniProt P01270 38-65, looked up, fragment)", "values": [
      {"measurement": "change in FRET signal", "setting": "PTHR-cam", "value": "failed to induce a change in FRET"}
    ]},
    {"molecule": "COC(=O)[C@H]1[C@H]2C[C@H]3c4[nH]c5ccccc5c4CCN3C[C@H]2CC[C@@H]1O", "note": "[rauwolscine]", "values": [
      {"measurement": "conformational change of the receptor relative to agonist noradrenaline", "setting": "α2AAR-cam [1]", "value": "opposite conformational changes"}
    ]},
    {"molecule": "Nc1ncnc2c1ncn2[C@@H]1O[C@H](CO)[C@@H](O)[C@H]1O", "note": "[adenosine]", "values": [
      {"measurement": "time for nFRET to return to initial value after withdrawal of agonist", "setting": "A2A-CFP14/10-YFPC33", "value": "5 to 10", "unit": "s"}
    ]},
    {"molecule": "Clc1cccc(Cl)c1N=C1NCCN1", "note": "[clonidine]", "values": [
      {"measurement": "FRET signal compared to the full agonist noradrenaline", "setting": "α2AAR-cam [2]", "value": "three-fold smaller"},
      {"measurement": "effect of simultaneous addition on noradrenaline response", "setting": "α2AAR-cam [2]", "value": "restored this response back to the partial response"}
    ]},
    {"molecule": "Nc1nc2c(ncn2[C@@H]2O[C@H](COP(=O)(O)OP(=O)(O)OP(O)(O)=S)[C@@H](O)[C@H]2O)c(=O)[nH]1", "note": "[GTPγS]", "values": [
      {"measurement": "reduction of the binding of 5 nM [3H]UK14304", "setting": "α2AAR-cam [3]; GTPγS 10 μM, Go present", "value": "more than 50%"},
      {"measurement": "effect on FRET signal of saturating concentrations of UK14304", "setting": "α2AAR-cam [4]; GTPγS", "value": "did not affect"},
      {"measurement": "reduction of FRET signals caused by 5 nM UK14304", "setting": "α2AAR-cam [4]; GTPγS 10 μM, Go present", "value": "more than 50%"}
    ]},
    {"molecule": "COC(=O)[C@@H]1[C@H]2C[C@H]3c4[nH]c5ccccc5c4CCN3C[C@@H]2CC[C@@H]1O", "note": "[yohimbine]", "values": [
      {"measurement": "conformational change of the receptor relative to agonist noradrenaline", "setting": "α2AAR-cam [1]", "value": "opposite conformational changes"}
    ]},
    {"molecule": "α2AAR-cam: mouse α2A-adrenergic receptor with YFP in third intracellular loop and CFP on C-terminus, SEQ ID NOS: 11 and 12", "values": [
      {"measurement": "speed of GIRK current activation versus wild type α2AAR", "setting": "α2AAR-cam [5]", "value": "not faster than the wild type"}
    ]},
    {"molecule": "CCNC(=O)[C@H]1O[C@@H](n2cnc3c(N)ncnc32)[C@H](O)[C@@H]1O", "note": "[^3H-NECA]", "values": [
      {"measurement": "radioligand binding compared with wild-type A2A receptor", "setting": "A2A receptors", "value": "no significant difference"}
    ]},
    {"molecule": "Cc1ccc(N(CC2=NCCN2)c2cccc(O)c2)cc1", "note": "[phentolamine]", "values": [
      {"measurement": "change of FRET signal, given alone", "setting": "α2AAR-cam [2]", "value": "did not alter the FRET signal"},
      {"measurement": "effect on the noradrenaline-induced FRET signal", "setting": "α2AAR-cam [2]", "value": "rapidly reverted the noradrenaline-induced signal"}
    ]},
    {"molecule": "NC[C@H](O)c1ccc(O)c(O)c1", "note": "[noradrenaline]", "values": [
      {"measurement": "Ki", "setting": "α2AAR", "value": "5000 ± 800", "unit": "nM"},
      {"measurement": "Ki", "setting": "α2AAR-cam [6]", "value": "16700 ± 1400", "unit": "nM"},
      {"measurement": "change of FRET signal, given alone", "setting": "α2AAR-cam [2]", "value": "decline of the FRET signal; also recorded: rapid decrease of the FRET signal"},
      {"measurement": "maximal apparent rate constant kobs", "setting": "α2AAR-cam [2]", "value": "~26", "unit": "s⁻¹"},
      {"measurement": "time constant required for receptor activation", "setting": "α2AAR-cam [2]", "value": "less than 40 ms"},
      {"measurement": "times faster than activation of chemically labelled purified β2-adrenergic receptors", "setting": "α2AAR-cam [2]", "value": "more than 5000 times"}
    ]},
    {"molecule": "Brc1c(NC2=NCCN2)ccc2nccnc12", "note": "[UK14304]", "values": [
      {"measurement": "decrease of binding affinity in presence of GTPγS", "setting": "α2AAR-cam [3]; 10 μM GTPγS", "value": "≈ 3 fold"},
      {"measurement": "Kd", "setting": "α2AAR-cam [3]; exogenous Go (receptor:Go 1:100), without GTPγS", "value": "3.4 ± 0.8", "unit": "nM"},
      {"measurement": "Kd", "setting": "α2AAR-cam [3]; exogenous Go, in presence of 10 μM GTPγS", "value": "9.6 ± 1.1", "unit": "nM"}
    ]},
    {"molecule": "pertussis toxin", "values": [
      {"measurement": "effect of inactivating Gi and Go on noradrenaline-induced FRET signal", "setting": "α2AAR-cam [2]", "value": "did not affect"}
    ]},
    {"molecule": "PTH: parathyroid hormone, agonist of the PTH receptor", "values": [
      {"measurement": "intermolecular FRET", "setting": "[7]", "value": "no FRET"}
    ]}
  ]
}
